Assay results taken from article PMC12347391, “Sulforaphane-Rich Broccoli Sprout Extract Promotes Hair Regrowth in an Androgenetic Alopecia Mouse Model via Enhanced Dihydrotestosterone Metabolism” (International Journal of Molecular Sciences, 2025).

Key:
[1] = tested on: DHT; assay: Plasma DHT level (ELISA); format: in vivo, C57BL/6J mice; settings: AGA mice; minoxidil 1% topical, finasteride 1 mg/kg oral
Method: Blood samples were collected in heparinized tubes and centrifuged at 13,000× g for 5 min at 4 °C to isolate plasma. The plasma was stored at −80 °C until analysis for testosterone and DHT concentrations.
Plasma samples collected after the final dose of once-daily treatments were used to quantify serum testosterone and DHT levels using commercial ELISA kits: the Mouse Testosterone ELISA Kit and Mouse DHT ELISA Kit (LifeSpan BioSciences, Inc., Seattle, WA, USA). All assays were conducted following the manufacturer’s protocols.

[2] = tested on: Akr1c21; assay: Western blot of liver tissue; format: in vivo, C57BL/6J mice; settings: 15 days post-treatment, minoxidil 1% topical, finasteride 1 mg/kg oral
Method: (§1) To assess protein expression levels in skin and liver tissues, samples were lysed using M-PER^TM Mammalian Protein Extraction Reagent (Thermo Fisher Scientific) supplemented with a 1× working concentration of Xpert Protease Inhibitor Cocktail Solution (GenDEPOT, Barker, TX, USA), which included 50 μM PMSF, 10 μM Pepstatin A, 20 μM Leupeptin, 100 μM Benzamidine, and 50 μM Bestatin. The lysates were incubated on ice for 30 min and centrifuged at 12,000× g for 10 min at 4 °C to remove debris. The supernatants were collected, and total protein concentrations were determined using the Pierce^TM BCA Protein Assay Kit (Thermo Fisher Scientific).
(§2) Equal amounts of protein (20–30 μg) were loaded onto 10% SDS–polyacrylamide gels and electrophoresed using a Bio-Rad Mini-PROTEAN Tetra System with the Tris–Glycine–SDS running buffer. A pre-stained molecular weight marker (Precision Plus Protein^TM Dual Color Standards, Bio-Rad) was used as a reference. Proteins were then transferred to PVDF membranes (Immobilon®-P, Millipore, Burlington, MA, USA) using the wet transfer method with the Tris–Glycine buffer containing 20% methanol at 0.2 A for 120 min at 4 °C.
(§3) Membranes were blocked with 5% skim milk in TBST buffer (20 mM Tris–HCl, 150 mM NaCl, 0.2% Tween 20, pH 7.4) for 1 h at room temperature and incubated overnight at 4 °C with one of the following primary antibodies diluted at 1:1000: anti-HSP90 (Santa Cruz Biotechnology, sc-13119, Dallas, TX, USA), anti-β-catenin (Cell Signaling Technology, #8480S, Danvers, MA, USA), anti-Lef-1 (Cell Signaling Technology, #2230S, Danvers, MA, USA), anti-Akr1c21 (Invitrogen, PA5-36572, Carlsbad, CA, USA), or anti-Dhrs9 (MyBioSource, MBS9125625, San Diego, CA, USA). Each antibody was applied to separate membranes to avoid cross-reactivity and ensure target specificity.
(§4) After primary antibody incubation, membranes were washed four times for 10 min each with TBST at 50 rpm on a shaker, followed by incubation with HRP-conjugated secondary antibodies (Thermo Fisher Scientific) diluted 1:3000 for 1 h at room temperature. The membranes were then washed three times for 5 min each with TBST under the same conditions. Protein bands were visualized using the enhanced chemiluminescence (ECL) reagent (Bio-Rad) and imaged using the iBright^TM CL1500 Imaging System (Thermo Fisher Scientific). Densitometric analysis was performed using the software ImageJ (NIH), and band intensities were normalized to HSP90 expression to ensure consistent protein quantification across all samples.

[3] = tested on: Dhrs9; assay: Western blot of liver tissue; format: in vivo, C57BL/6J mice; settings: 15 days post-treatment, minoxidil 1% topical, finasteride 1 mg/kg oral
Method: as §1, §2, §3, §4

[4] = tested on: testosterone-induced AGA mouse model; assay: In vivo hair regrowth efficacy; parameters: species or system C57BL/6J mice; settings: finasteride 1 mg/kg oral; for hair regrowth (coverage of the telogen area) / telogen-to-anagen conversion (telogen area transitioning): day 6; for hair regrowth (coverage of the telogen area) / telogen-to-anagen conversion (telogen area transitioning) / anagen area / hair regrowth / increase in hair follicle length compared to the untreated group / increase in hair weight compared to the untreated group: minoxidil 1% topical; for telogen-to-anagen conversion (telogen area transitioning): once daily
Method: On day 6, dorsal hair was removed from all mice. All mice were anesthetized using 3% isoflurane in 100% oxygen at a flow rate of 0.8 L/min, and the suppression of deep pedal reflexes was confirmed in the mice. Then, the desired dorsal region was shaved using electric clippers, followed by the application of rosin wax. After 2 min, the rosin wax was removed with the help of adhesive tape. The application of rosin wax was repeated one more time to completely remove the few remaining hairs.
Testosterone-treated mice were then randomly assigned to six groups (n = 6 per group). The first group served as the negative control and only received the vehicle.
Hair regrowth was visually monitored and photographed on days 0, 3, 6, 9, 12, and 15. Regrowth progression was quantitatively assessed using the software ImageJ (version 1.54p; National Institutes of Health, Bethesda, MD, USA) by measuring the areas corresponding to telogen-phase skin (pink), anagen transition zones (black), and fully covered hair regions. On day 15, the regrown dorsal hair was trimmed and weighed using an analytical balance to assess total hair mass. To evaluate hair follicle length, mice were first anesthetized using 3% isoflurane in 100% oxygen at a flow rate of 0.8 L/min to minimize movement and distress. The dorsal skin area was then cleaned with 70% ethanol to prevent contamination. Using sterile fine-tipped forceps, approximately 5–20 hairs were grasped close to the skin surface and swiftly plucked in the direction of hair growth to minimize follicular damage. Only hair shafts with intact follicular bulbs were selected for analysis. This procedure was repeated at three distinct dorsal sites per animal to obtain a representative sampling of hair regrowth. Finally, the lengths of selected hair follicles were measured microscopically.

[5] = tested on: β-catenin; assay: Western blot of dorsal skin; format: in vivo, C57BL/6J mice; settings: 15 days post-treatment; minoxidil 1% topical, finasteride 1 mg/kg oral
Method: as §1, §2, §3, §4

[6] = tested on: Lef-1; assay: Western blot of dorsal skin; format: in vivo, C57BL/6J mice; settings: 15 days post-treatment; minoxidil 1% topical, finasteride 1 mg/kg oral; neither significant
Method: as §1, §2, §3, §4

[7] = tested on: liver tissue; assay: Safety observation and liver H&E histology after 15-day treatment; format: in vivo, C57BL/6J mice; settings: mice, oral BSE or finasteride
[8] = tested on: HaCaT keratinocytes; assay: In vitro cell proliferation assay (WST-1)
[9] = tested on: HDP cells; assay: In vitro cell proliferation assay (WST-1); format: cell-based, human
[10] = tested on: CCD-986sk dermal fibroblasts; assay: In vitro cell proliferation assay (WST-1)
[11] = tested on: HDP cells; assay: In vitro scratch wound recovery assay; format: cell-based, human
Method: No. BA-045855; Sartorius AG, […], Germany). […] Sartorius AG), following the manufacturer's instructions. Detached cells were removed by washing twice with PBS (pH 7.4). […] All treatments were performed in triplicate, including a vehicle control. […] Wound closure was quantified using the Incucyte® Scratch Wound Analysis Software Module, which calculates relative wound density (%) by comparing cell density within the wound area to that of the surrounding monolayer, providing an objective measure of cell migration and proliferation over time.

SMILES: CC(C)(C)NC(=O)[C@H]1CC[C@H]2[C@@H]3CC[C@H]4NC(=O)C=C[C@]4(C)[C@H]3CC[C@]12C [finasteride]
- reduction of plasma DHT compared to the untreated control [1]: 2.38 fold
- hepatic Akr1c21 protein expression [2]: markedly upregulated
- hepatic Dhrs9 protein expression [3]: markedly upregulated
- hair regrowth (coverage of the telogen area) [4]: 7.76%
- telogen-to-anagen conversion (telogen area transitioning) [4]: 85.8%
- telogen area ([4]; day 9): 6.94%
- anagen area ([4]; day 9): 93.1%
- hair regrowth ([4]; day 9): 54.2%
- hair regrowth ([4]; day 15): 99.0%
- increase in hair follicle length compared to the untreated group ([4]; day 15): 3.00 fold
- increase in hair weight compared to the untreated group ([4]; day 15): 165%
- β-catenin expression in dorsal skin [5]: significantly restored
- Lef-1 expression in dorsal skin [6]: no such trend
- physical abnormalities during treatment [7]: no physical abnormalities

SMILES: Nc1cc(N2CCCCC2)nc(N)[n+]1[O-] [minoxidil]
- reduction of plasma DHT compared to the untreated control [1]: no detectable effect
- concentration above which cytotoxic effects (decreased cell viability) were seen [8]: above 10 µg/mL
- hepatic Akr1c21 protein expression [2]: no significant effect
- hepatic Dhrs9 protein expression [3]: no significant effect
- hair regrowth (coverage of the telogen area) [4]: 0.7%
- telogen-to-anagen conversion (telogen area transitioning) [4]: 65.0%
- anagen area ([4]; day 9): 69.8%
- hair regrowth ([4]; day 9): 4.79%
- hair regrowth ([4]; day 15): 95.0%
- increase in hair follicle length compared to the untreated group ([4]; day 15): 2.24 fold
- increase in hair weight compared to the untreated group ([4]; day 15): 82.5%
- concentration above which proliferation markedly declined [9]: above 10 µg/mL
- concentration at which proliferation decreased (dose-dependent cytotoxicity) [10]: ≥ 10000 ng/mL
- increase in cell proliferation ([10]; 0.5 µg/mL): 184%
- increase in cell proliferation ([10]; 1 µg/mL): 173%
- proliferation at lower concentrations ([10]; 0.01–0.1 µg/mL): significantly enhanced proliferation
- β-catenin expression in dorsal skin [5]: significantly restored
- Lef-1 expression in dorsal skin [6]: positive trend
- scratch wound closure ([11]; 0.1 µg/mL, 16 h): 68.8%
- scratch wound closure ([11]; 0.1 µg/mL, 20 h): 77.7%
- scratch wound closure ([11]; 0.1 µg/mL, 24 h): 94.7%
- scratch wound closure ([11]; 1 µg/mL, 16 h): 49.2%
- scratch wound closure ([11]; 25 µg/mL, 16 h): 29.2%
